Measurements published in US8426385B2 (Hainan Hdeton Science and Technology Co. Ltd., priority 2006, dated 2013).
≈ marks a conversion by molar mass, not a printed value.

Experiments:
[1] = Determination of inclusion stability constant Ka by UV spectrophotometry; type: physicochemical; details: 234 nm
Procedure: The inclusion stability constant Ka is used to determine the degree of inclusion and UV spectrophotometry is one of common methods to determine Ka. […] Meanwhile, the changes of Ka after adding ethanol are determined in the test, and the Ka values of different cyclodextrins are shown in Table 1.

[2] = phase solubility studies; cited from earlier work
[3] = cited from earlier work
[4] = Inclusion solubilization test (paclitaxel solubility in cyclodextrin solution); type: physicochemical; details: 25° C.; for Paclitaxel solubility in cyclodextrin solution: 72 h
Description: A standard curve was plotted by A and concentration C (mg/ml) (A=393.2 C−0.0123; r=0.9998).

[5] = Paclitaxel stability test in solution (HPLC assay); type: physicochemical; details: mobile phase pH=6.50, diluted 100 times
Procedure: (§1) HPLC chromatographic conditions: chromatographic column ODS C18 (250 mm×4.6 mm); mobile phase: methanol:water:acetonitrile (20:30:50); flow rate: 1.0 ml/min; detection wavelength: 228 nm; detection time: 30.00 min; detection sensitivity: 1.0000 AUFS.
The sample solutions had stable chemical properties and the content was basically unchanged.

[6] = Solid inclusion stability, 5-day acceleration test (HPLC content); type: physicochemical
Procedure: as §1
Samples were put in a sealed transparent container and then placed in an illumination box equipped with fluorescent light of 4500±500 LX illumination intensity for 5 days. Sampling inspection analysis was conducted, and the test results were compared with the samples of 0 day.
Samples were placed in a clean sealed container at temperature of 60° C. for 5 days. Sampling inspection analysis was conducted, and the test results were compared with the samples of 0 day.
Samples were placed in a sealed container of constant humidity at temperature of 25° C. and relative humidity of 90±5% for 5 days. Sampling inspection analysis was conducted, and the test results were compared with the samples of 0 day.

[7] = Animal body weight in the S180 anti-tumor test; details: S180 solid tumor, Kunming mice, intraperitoneal, 7 days
[8] = test system: S180 cells; assay: In vivo anti-tumor effect, S180 solid tumor model; details: Kunming mice, intraperitoneal, 7 days, 5 mg/kg dose (printed for the inclusion)
[9] = aqueous solution; UV spectrum study; cited from earlier work
[10] = about 50% cyclodextrin aqueous solution, pure water; cited from earlier work
[11] = cyclodextrin concentration 31 %

For `OC[C@H]1O[C@@H]2O[C@H]3[C@H](O)[C@@H](O)[C@@H](O[C@H]4[C@H](O)[C@@H](O)[C@@H](O[C@H]5[C@H](O)[C@@H](O)[C@@H](O[C@H]6[C@H](O)[C@@H](O)[C@@H](O[C@H]7[C@H](O)[C@@H](O)[C@@H](O[C@H]8[C@H](O)[C@@H](O)[C@@H](O[C@H]1[C@H](O)[C@H]2O)O[C@@H]8CO)O[C@@H]7CO)O[C@@H]6CO)O[C@@H]5CO)O[C@@H]4CO)O[C@@H]3CO` [β-cyclodextrin], the “first-level apparent stability constant Ka of cyclodextrin/paclitaxel” value ([1]; H2O) was 413 M⁻¹.

In the case of `OC[C@H]1O[C@@H]2O[C@H]3[C@H](O)[C@@H](O)[C@@H](O[C@H]4[C@H](O)[C@@H](O)[C@@H](O[C@H]5[C@H](O)[C@@H](O)[C@@H](O[C@H]6[C@H](O)[C@@H](O)[C@@H](O[C@H]7[C@H](O)[C@@H](O)[C@@H](O[C@H]8[C@H](O)[C@@H](O)[C@@H](O[C@H]9[C@H](O)[C@@H](O)[C@@H](O[C@H]1[C@H](O)[C@H]2O)O[C@@H]9CO)O[C@@H]8CO)O[C@@H]7CO)O[C@@H]6CO)O[C@@H]5CO)O[C@@H]4CO)O[C@@H]3CO` [γ-cyclodextrin], the “dual-inclusion constant with paclitaxel” value [2] is listed as 785 M⁻¹.

In the case of sulfobutyl-β-cyclodextrin, the “first-level apparent stability constant Ka of cyclodextrin/paclitaxel” value ([1]; 60% EtOH) is given as 9367 M⁻¹, the “first-level apparent stability constant Ka of cyclodextrin/paclitaxel” value ([1]; H2O) is given as 5396 M⁻¹ and the water-solubility [3] is given as > 50 g/100 g H2O. For the same compound, the “Paclitaxel solubility in cyclodextrin solution” value ([4]; cyclodextrin concentration 25 %) was 9324 µg/mL and the “Paclitaxel solubility in cyclodextrin solution” value [4, 11] was 10182 µg/mL.

For hydroxypropyl-sulfobutyl-β-cyclodextrin, the “first-level apparent stability constant Ka of cyclodextrin/paclitaxel” value ([1]; 60% EtOH) was 19722 M⁻¹, the “first-level apparent stability constant Ka of cyclodextrin/paclitaxel” value ([1]; H2O) was 14121 M⁻¹ and the “Paclitaxel solubility in cyclodextrin solution” value [4, 11] was 11177 µg/mL.

In the case of `CC(=O)O[C@H]1C(=O)[C@@]2(C)[C@H]([C@H](OC(=O)c3ccccc3)[C@]3(O)C[C@H](OC(=O)[C@H](O)[C@@H](NC(=O)c4ccccc4)c4ccccc4)C(C)=C1C3(C)C)[C@]1(OC(C)=O)CO[C@@H]1C[C@@H]2O` [Paclitaxel, (2S,5R,7S,10R,13S)-10,20-bi(acetoxy)-2-benzoyl-oxy-1,7-dihydroxy-9-oxo-5,20-epoxy taxanes-11-ene-13-radical(3S)-3-benzoyl amino-3-phenyl-D-lactic acid ester], the “Content in aqueous solution” value ([5]; 0 h) is reported as 99.745%, the “Content in aqueous solution” value ([5]; 2 h) is reported as 99.700% and the “Content in aqueous solution” value ([5]; 4 h) is reported as 99.577%. The “Content in aqueous solution” value ([5]; 6 h) was 99.648%, the “Content in aqueous solution” value ([5]; 8 h) was 99.608% and the Content ([6]; 0 day) was 99.748%. The Content ([6]; High humidity, 25° C., RH 90±5%, 5 days) was 89.336%, the Content ([6]; High temperature, 60° C., 5 days) was 91.569% and the Content ([6]; Light, 4500±500 LX, 5 days) was 90.346%. The “effect on animal body weight” value [7] was “reduce the animal body weight”, the “weight loss of animals compared with the inclusion group” value [7] was “greater” and the solubility at 72 h ([4]; thermodynamic from solid, pure water, cyclodextrin concentration 0 %) was 0.589 µg/mL (≈ 0.69 µM). For the same compound, the anti-tumor rate [8] was 82.77%.

For hydroxypropyl-β-cyclodextrin, the “first-level apparent stability constant Ka of cyclodextrin/paclitaxel” value ([1]; 60% EtOH) is given as 4646 M⁻¹, the “first-level apparent stability constant Ka of cyclodextrin/paclitaxel” value ([1]; H2O) is given as 1325 M⁻¹ and the inclusion constant [9] is given as 3030 M⁻¹. The “dual-inclusion constant with paclitaxel” value [2] was 7965 M^− and the paclitaxel solubility [10] was 3400 µg/mL.
